Entries after “also recorded” stand apart in the source; their conditions may differ. Like-named read-outs stand apart in the source and are kept apart here.
Assays:
[1] = test system: Human ES cells (KhES #1); test: Hypothalamus gene marker expression in human ES cells by modified SFEBq/gfCDM (quantitative PCR, day 31); format: cell-based; conditions: insulin 7 μg/ml, 31 days
[2] = test system: Rx-GFP ES cells; test: Differentiation into hypothalamic progenitor cells by SFEBq/gfCDM, percentage of Rx-GFP+ cells by FACS on day 7; format: cell-based, mouse; conditions: for Rx-GFP positivity rate recovered in the presence of insulin: LY294002 5 μM, Akt inhibitor VIII 2 μM
Procedure: Differentiation culture was performed under the same culturing conditions as Example 13 for 7 days. For analyzing the differentiated cells, an antibody against the Rx protein, which is a hypothalamic and retinal progenitor cell marker, was used. In hypothalamic progenitor cells, in addition to Rx, a protein called nestin is expressed, whereas in retinal progenitor cells, only Rx is expressed but nestin is not expressed, so that hypothalamic progenitor cells were identified by a fluorescent immunostaining method with the co-expression of Rx and nestin as an index.
Furthermore, EB5 cells wherein GFP was knocked in at the Rx gene locus (hereinafter, Rx-GFP ES cells) were prepared, and the expression of Rx-GFP was also analyzed by FACS.
(§1) Differentiation culture was performed under the same culturing conditions as Example 14 for 7 days, and the influence of the addition of insulin to the medium on the differentiation of hypothalamic progenitor cells from ES cells was analyzed by FACS using Rx-GFP ES cells. The intracellular signal transduction of insulin is involved by roughly two pathways (MAPK pathway and PI3K-Akt pathway). […] LY294002, Akt inhibitor VIII, PD98059 or DMSO (vehicle control) was added on day 2 of cultivation.

[3] = test system: aggregate masses derived from a mouse ES cell; test: Ca++ imaging (fluo4-AM) of cerebral neurons produced by the SFEBq method; format: cell-based
Procedure: To confirm the activities and network formation of cerebral neurons produced by the SFEBq method, an analysis was performed by a Ca^++ imaging method using fluo4-AM. The method of examination was as described in the literature (Ikegaya et al, 2005, Neurosci. Res., 52, 132-138).
Aggregate masses derived from a mouse ES cell cultured by the method described in Example 1 for 18 days were further cultured on the Transwell culture insert (Corning) using a DMEM/F12 medium supplemented with N2 for 7 days (FIG. 3A, view A). Ca^++ imaging was performed at room temperature using an artificial cerebrospinal fluid.

[4] = test system: Rx-GFP ES cells; test: Dorsal/ventral hypothalamic marker expression in Rx-GFP-positive re-aggregate masses (fluorescent immunostaining, day 13); format: cell-based, mouse
Procedure: The cells of each fraction were dispensed to a non-cell-adhesive 96-well culture plate at 2500-5000 cells per well, and further cultured using a DMEM/F12 medium supplemented with 7 g/L glucose, 10% KSR and penicillin/streptomycin for 3 days. […] Three days later, half the medium was replaced with a DFNB medium (a DMEM/F12 supplemented with 7 g/l of glucose, 1×N2 supplement and 1×B27 supplement) supplemented with 10 ng/ml of CNTF, and the cells were further cultured for 3 days.
After cultivation for a total of 13 days, the re-aggregate masses were prepared as frozen sections, and the properties of the differentiated cells were analyzed by a fluorescent immunostaining method. For evaluating the effect of Shh, 30 nM Shh was added from 4 days after the start of cultivation.

[5] = test system: Bf1/Venus-mES cells; test: Layer-specific neuron differentiation of FACS-sorted, re-aggregated SFEBq cerebral progenitors after Notch inhibition (fluorescent immunostaining); format: cell-based, mouse; conditions: further 6 days culture
Procedure: After Bf1/Venus-mES cells were cultured for differentiation for different lengths of periods (9 days or 12 days), the resulting Venus-positive cells were separated by FACS, and rapid re-aggregation (5000 cells/well) was performed using a non-cell-adhesive 96-well culture plate. Starting on the following day, rapid induction of differentiation into neurons was performed by a treatment with the Notch inhibitor DAPT (10 μM; known to promote neuron differentiation; Nelson et al, 2007); after further differentiation culture for 6 days, layer-specific markers were analyzed by a fluorescent immunostaining method (FIG. 6, view A).

[6] = test system: Mouse ES cells (EB5 and Sox1-GFP ES cells); test: Nerve differentiation of mouse ES cells by the SFEBq/gfCDM method; format: cell-based; conditions: 15 μg/ml in differentiation medium
Procedure: To induce the differentiation of nerves by suspension culture, ES cells were mono-dispersed using 0.25% trypsin-EDTA (Invitrogen), suspended in 150 μl of a differentiation medium to obtain a cell density of 3000 cells per well on a non-cell-adhesive 96-well culture plate (Lipidure-Coat, NOF Corp.), and incubated at 37° C., 5% CO2 for 5 days.
The differentiation medium used was Iscove's Modified Dulbecco's Medium (IMDM)/Hams F12 1:1 (Invitrogen) supplemented with 1× Chemically-defined lipid concentrate (Invitrogen), monothioglycerol (450 μM; Sigma) and bovine serum albumin (a recrystallization-purified product of >99% purity; Sigma).
Differentiation into nerve progenitor cells was analyzed as described previously (Watanabe et al., Nature Neuroscience, 2005) by FACS using Sox1-GFP ES cells that emit fluorescence when differentiated into nerves. The FACS was performed using FACSAria (Beckton Dickenson) and its data were analyzed using FACSDiva software. Nerve differentiation was also analyzed by a fluorescent immunostaining method using EB5 cells.

[7] = test system: SFEBq culture product; test: qPCR of marker genes in the SFEBq culture product with insulin; format: cell-based, mouse; conditions: insulin treatment
Procedure: The expression of a marker gene is analyzed by, for example, performing quantitative PCR using the 7500 Fast Real-Time PCR System (Applied Biosystems) in accordance with the manufacturer's instructions, and normalizing the obtained data by the expression of GAPDH. The method of quantitative PCR is obvious to those skilled in the art. Alternatively, cells may be manipulated to allow the desired marker gene to be expressed as a fusion protein of a marker gene product and GFP or the like (knocking-in). It is also possible to detect the expression of the protein using an antibody specific for a marker gene product.
as §1

[8] = test system: Bf1/Venus-mES cells; test: Cerebral site-specific differentiation of re-aggregated SFEBq cerebral progenitors with secreted pattern formation factors (fluorescent immunostaining); format: cell-based, mouse; conditions: BMP4 0.5 ng/ml
Procedure: Bf1/Venus-mES cells were cultured for differentiation by the SFEBq method for 7 days, after which the resulting Venus-positive cells were separated by FACS, and rapid re-aggregation (5000 cells/well) was performed using a non-cell-adhesive 96-well culture plate. Secreted pattern formation factors such as Fgf 8b (50 ng/ml), the Fgf receptor inhibitor FGFR3-Fc (50 ng/ml), Wnt3a (20 ng/ml), and BMP4 (0.5 ng/ml) were added thereto, and the cells were cultured for 3 to 12 days. The expression of cerebral part-specific markers was analyzed by a fluorescent immunostain method (FIG. 7A, view A).

[9] = 7 μg/ml insulin, added on day 2
[10] = room temperature, artificial cerebrospinal fluid
[11] = 10 μM treatment after 12 days of differentiation culture

**Q.** With `O=c1[nH]c2ccccc2n1C1CCN(Cc2ccc(-c3nc4cc5[nH]cnc5cc4nc3-c3ccccc3)cc2)CC1` [Akt inhibitor VIII, 1,3-Dihydro-1-(1-((4-(6-phenyl-1H-imidazo[4,5-g]quinoxalin-7-yl)phenyl)methyl)-4-piperidinyl)-2H-benzimidazol-2-one] as the molecule, how does the “Rx expression without addition of Akt inhibitor VIII, relative to culture with 2 μM from day 9” value [1] read?
**A.** 50%

**Q.** What about the “Vax1 expression without addition of Akt inhibitor VIII, relative to culture with 2 μM from day 9” value [1] of the same molecule?
**A.** 25%

**Q.** What about the “Rx-GFP positivity rate recovered in the presence of insulin” value [2, 9] of the same molecule?
**A.** ~28%

**Q.** Which “repeated synchronized Ca++ elevations over a long distance (Ca++ oscillation)” value [3, 10] does the source give for `N#Cc1cc2[nH]c(=O)c(=O)[nH]c2cc1[N+](=O)[O-]` [CNQX] here?
**A.** inhibited

**Q.** For `CC1=C2C[C@H]3[C@@H](CC=C4C[C@@H](O)CC[C@@]43C)[C@@H]2CC[C@]12O[C@@H]1C[C@H](C)CN[C@H]1[C@H]2C` [Cyclopamine, 11-Deoxojervine], which “expression of dorsal/ventral hypothalamus markers compared with the Shh treatment” value [4] is on record?
**A.** reverse result

**Q.** What does the source list for `C[C@H](NC(=O)Cc1cc(F)cc(F)c1)C(=O)N[C@H](C(=O)OC(C)(C)C)c1ccccc1` [DAFT]?
**A.** cells differentiated into Reelin-positive Cajal-Retzius cells ([5]; 10 μM treatment after 9 days of differentiation culture): more than 50%; Reelin-positive cells [5, 11]: less than 10%; cells differentiated into Ctip2/Emx1-positive cerebral cortical neurons specific for the 5th layer [5, 11]: more than 60%

**Q.** With `Cl.O=c1cc(N2CCOCC2)oc2c(-c3ccccc3)cccc12` [LY294002, 2-(4-morpholinyl)-8-phenyl-1(4H)-benzopyran-4-one hydrochloride] as the molecule, how does the “Rx-GFP positivity rate recovered in the presence of insulin” value [2, 9] read?
**A.** about 20%

**Q.** `COc1cccc(-c2cc(=O)c3ccccc3o2)c1N` [PD98059] was tested. Which “antagonism of the inhibitory effect of insulin on differentiation into hypothalamic progenitor cells” value ([2]; 7 μg/ml insulin, PD98059 0.5-10 μM, added on day 2) did it give?
**A.** did not antagonize; also recorded: not noted

**Q.** How did the “expression of dorsal/ventral hypothalamus markers compared with the Shh treatment” value ([4]; Cyclopamine treatment, Purmorphamine 0.5 μM in place of Shh) turn out when `c1ccc2c(Oc3nc(Nc4ccc(N5CCOCC5)cc4)c4ncn(C5CCCCC5)c4n3)cccc2c1` [Purmorphamine, 2-(1-Naphthoxy)-6-(4-morpholinoanilino)-9-cyclohexylpurine] was run?
**A.** same effects as with Shh

**Q.** With `NC(=O)CC[C@H](N)C(=O)O` [glutamine] as the molecule, how does the “Ca++ elevations synchronized or not synchronized with surrounding cells” value [3, 10] read?
**A.** enhanced

**Q.** With `O=[Se](O)O` [sodium selenite] as the molecule, how does the “percentage of Rx-GFP” value ([2]; concentration in differentiation medium increased from 0.017 mg/L to 0.025 mg/L, control 50-70%) read?
**A.** about 80%

**Q.** For `NC1=N[C@H](O)[C@H]2[C@H]3O[C@]4(O)O[C@@H]([C@@H](O)[C@@]2(N1)[C@@H]4O)[C@]3(O)CO` [tetrodotoxin], which “Ca++ elevations synchronized or not synchronized with surrounding cells” value [3] is on record?
**A.** inhibited

**Q.** And the “repeated synchronized Ca++ elevations over a long distance (Ca++ oscillation)” value [3]?
**A.** inhibited

**Q.** How did the “influence of addition or non-addition on the differentiation results” value [6] turn out when “human apo-transferrin: human apo-transferrin (Sigma), medium additive” was run?
**A.** did not influence

**Q.** With “insulin: insulin added to serum-free medium” as the molecule, how does the “expression of a caudal marker” value [7] read?
**A.** induced moderately

**Q.** And the “expression of the most rostral CNS marker” value [7]?
**A.** suppressive effect

**Q.** And the Rx-GFP positivity rate ([2]; 7 μg/ml insulin)?
**A.** less than 5%

**Q.** What about the “expression of Rx-GFP, time-window analysis” value ([2]; insulin 7 μg/ml added to gfCDM on day 5 or before) of the same molecule?
**A.** suppressed

**Q.** And the “effect on Rx-GFP+%, time-window analysis” value ([2]; insulin 7 μg/ml present after day 4)?
**A.** decreased substantially

**Q.** What about the “effect on Rx-GFP+%, time-window analysis” value ([2]; insulin 7 μg/ml present during the first 3 days) of the same molecule?
**A.** almost no inhibitory effect

B1: Wnt3a: protein belonging to the Wnt family, Wnt signal promoter (protein, UniProt P56704 19-352, looked up)
Protein Wnt-3a: SYPIWWSLAVGPQYSSLGSQPILCASIPGLVPKQLRFCRNYVEIMPSVAEGIKIGIQECQHQFRGRRWNCTTVHDSLAIFGPVLDKATRESAFVHAIASAGVAFAVTRSCAEGTAAICGCSSRHQGSPGKGWKWGGCSEDIEFGGMVSREFADARENRPDARSAMNRHNNEAGRQAIASHMHLKCKCHGLSGSCEVKTCWWSQPDFRAIGDFLKDKYDSASEMVVEKHRESRGWVETLRPRYTYFKVPTERDLVYYEASPNFCEPNPETGSFGTRDRTCNVSSHGIDGCDLLCCGRGHNARAERRREKCRCVFHWCCYVSCQECTRVYDVHTCK
**Q.** B1 was tested. Which “cells expressing Otx2 and Lmx1a (hem area markers)” value ([8]; Wnt3a 20 ng/ml) did it give?
**A.** 2-30%

B2: BMP4: protein belonging to the BMP family, BMP signal promoter (protein, UniProt P12644 293-408, looked up)
Bone morphogenetic protein 4: SPKHHSQRARKKNKNCRRHSLYVDFSDVGWNDWIVAPPGYQAFYCHGDCPFPLADHLNSTNHAIVQTLVNSVNSSIPKACCVPTELSAISMLYLDEYDKVVLKNYQEMVVEGCGCR
**Q.** Which “differentiation of choroidal tissue (TTR-positive)” value [8] does the source give for B2 here?
**A.** noted
